Assay results as given in US20130212738A1, “COMPOSITION FOR PHYTOCHELATIN TRANSPORT” (POSTECH ACADEMY-INDUSTRY FOUNDATION, priority 2010, published 2013).

Columns and labels:
[1] = target: PC2-As complex (phytochelatin PC2 in complex with As(III)); experiment: cell-based or functional assay
[2] = test system: atabcc1 atabcc2 double knock-out A. thaliana; conditions: in vivo
[3] = test system: A. thaliana mesophyll vacuoles; experiment: PC2 transport into intact vacuoles isolated from A. thaliana mesophyll protoplasts; assay type: biochemical
AtABCC2 = target: T1, AtABCC2 (Arabidopsis thaliana, UniProt Q42093); assay type: biochemical, A. thaliana
T1 construct: expressed in transfected cells; host or cells: Saccharomyces cerevisiae SM7 (ycf1/yhl035c/yll015w/yll048c-deficient, expressing TaPCS1); microsomal vesicles

AtABCC1 = target: T2, AtABCC1 (Arabidopsis thaliana, UniProt Q9C8G9); experiment: PC2 transport into microsomal vesicles of SM7 yeast expressing AtABCC1; assay type: biochemical, A. thaliana; conditions: vanadate 1 mM, NH4Cl 5 mM, PC 25 μM
T2 construct: expressed in transfected cells; host or cells: Saccharomyces cerevisiae SM7 (ycf1/yhl035c/yll015w/yll048c-deficient, expressing TaPCS1); microsomal vesicles

Compound | concentration of PC at half maximum of the absorption (transport) activities, 35S-PC2 uptake into yeast SM7 microsomal vesicles [1] [µM] | growth of the atabcc1 atabcc2 knock-out line compared with the wild type [2] | other results
AtABCC1 (from UniProt Q9C8G9 1-1622) | 350 | – | –
O=[As]([O-])([O-])O.[Na+].[Na+] [As(V), Na2HAsO4] | – | dramatically inhibited | –
AtABCC2 (from UniProt Q42093 1-1623) | 350 | – | –
[O]=[V]([O-])([O-])[O-] [vanadate] | – | – | residual transport activity (PC transport of isolated vacuoles) [3]: 25±7%; inhibition of absorption of PC2—As complex into the yeast vesicle (AtABCC2): remarkably reduced; inhibition of absorption of PC2—As complex into the yeast vesicle (AtABCC1): remarkably reduced
arsenite | – | – | transport of arsenic in a non-chelated form (ICP-MS) (AtABCC2): not transported
[Cd] [Cd, cadmium] | – | dramatically inhibited | –
